Results as given in ChEMBL document CHEMBL5154882, “Discovery of 4-Hydroxyquinazoline Derivatives as Small Molecular BET/PARP1 Inhibitors That Induce Defective Homologous Recombination and Lead to Synthetic Lethality for Triple-Negative Breast Cancer Therapy” (J Med Chem, 2022).

Legend:
[1] = Apparent volume of distribution in Sprague-Dawley rat at 1 mg/kg, iv; type: ADME, organism-based; conditions: in vivo
MDA-MB-468 [2] = experiment: Downregulation of PAR expression level in human MDA-MB-468 cells by Western blot analysis; type: functional, cell-based; conditions: dose 5-20 µM, DDE = dose-dependent effect
MDA-MB-468 [3] = experiment: Cell cycle arrest in human MDA-MB-468 cells assessed as accumulation at S phase at 5 uM incubated for 72 hrs by propidium iodide staining-based flow cytometry analysis (reference value: 21.1%); type: functional

COc1cc(OC)c2c(=O)[nH]c(-c3cccc(Cc4n[nH]c(=O)c5ccccc45)c3)nc2c1
Vz [1]: 21.1 L/kg
Activity (MDA-MB-468 [2]): Dde
Activity (MDA-MB-468 [3]): 22.2%
